Consider one compound from patent US20060100168A1, “Method of treating cancer using adenosine and its analogs” (The Trustee of Boston University, priority 2002, published 2006).

Holding throughout (type): cell-based, human
The test system of one assay is T47D cells. Kind of assay: Anchorage-dependent growth assay. To be noted: 100 μM, three days.
The test system of the next assay is CMV promoter. Briefly: Reporter gene assay pCMV-β-Gal in MCF-7 cells. To be noted: MCF-7 transfected with pCMV-β-Gal; 12 hours. How it is done: Transfections and Reporter Gene Assay: Transient transfection was performed using FuGene6 (Roche, Indianapolis, Ind.) transfection reagent according to manufacturer's protocol. Circular reporter plasmid pERE-Tk-Luc at 10 μg and 10 μg of pCMV-β-Gal (as a measure of efficiency of trasnfection) were transfected with 50 μl of FuGene6. Cells were split into 6 well plates 12 hours after transfection, and incubated overnight in fresh medium. […] Luciferase and β-galactosidase activities were measured as described before (43, 44).
A general note: A reporter such as luciferase makes a cellular process visible.

Another assay has as its system Hs578T cells. Briefly: Apoptosis by propidium iodide staining and flow cytometry. As to conditions: 100 μM, two days. On the procedure:
Flow Cytometry and Apoptosis Analysis: Cells were detached from tissue culture plates by trypsin treatment. Cells were collected by centrifugation at 1200 g for 5 minutes and washed once with PBS. Staining of cells with propidium iodide and analysis on a flow cytometer (FACScan, Becton Dickinson, Research Triangle Park, N.C.) was performed as described before (42). Data were analyzed with CellQuest software (Becton Dickinson, Research Triangle Park, N.C.). The percentage of cells appearing with a ploidy level smaller than a diploid content was calculated as an estimate of cells undergoing apoptosis.
Background: Flow cytometry measures light scatter and fluorescence of single cells or particles in a stream.

Assay [1] has as its system cyclin A, cyclin B1, cyclin E, p27. Briefly: Western blot of cyclins and Cdk inhibitor in MCF-7 cells. To be noted: 100 μM. On the procedure: (§1) Western Blot Analysis: Cells were washed three times in cold 1×PBS, and collected by scraping on ice. Western blot analysis was performed as we described before with the chemiluminescence method (41). Antibodies used in this study were: ERα (NeoMarkers, Ab-15), Cyclin A (Santa Cruz Biotech, H-432), Cyclin B1 (Santa Cruz Biotech, H-433), Cyclin E (Upstate Biotech, HE-12), p27 (Santa Cruz Biotech, F-8). ERα antibody was used at 1:100 dilutions. Cyclin A, cyclin B1 and p27 antibodies were used at 1:500 dilutions. Cyclin E antibody was used at 1:1000 dilutions.
(In general: A western blot detects proteins with antibodies after separation by electrophoresis.)

The test system of assay [2] is ERα protein in ZR-75 cells. Kind of assay: ERα protein level in ZR-75 cells. As to conditions: not shown. On the procedure: as §1
A further assay has as its system pS2 mRNA. Kind of assay: Semi-quantitative RT-PCR of pS2 mRNA in MCF-7 cells. To be noted: 100 μM, observed after 8 to 12 hours. On the procedure: (§2) Total RNA preparation and Reverse Transcription Polymerase Chain Reaction (RT-PCR): Total RNA from MCF-7 cells was prepared with Trizol (Invitrogen, Carlsbad, Calif.) as described before (41). For reverse transcription, 2 μg of RNA were used in a […] with random primers and M-MLV reverse transcriptase (Invitrogen, Carlsbad, Calif.), following the manufacturer's protocol. To control for possible contamination from genomic DNA in subsequent PCR reactions, control reverse transcription reactions were carried out under identical conditions, only without reverse transcriptase. After reverse transcription, 5% of the product was used in each PCR reaction. For the experiments analyzing A3 adenosine receptor (A3AR) expression, 27 cycles were used in the PCR reactions. Specific primers were designed for human A3AR, which match to two separate exons, according to genomic sequences (from GenBank). Sequences for the sense and antisense A3AR primers are: 5′tccatcatgtccttgctg3′ (SEQ ID NO: 1) and 5′gcacatgacaaccaggg3′ (SEQ ID NO.: 2). In the experiments analyzing estrogen receptor a (ERα) mRNA, semi-quantitative PCR reactions were carried out with 23 cycles for ERα primers and 19 cycles for GAPDH primers (used as a control). The cycle numbers were tested in previous experiments not to produce saturation effects. […]

Assay [3] deals with estrogen receptor β (ERβ) mRNA. Briefly: Semi-quantitative RT-PCR of ERβ mRNA in MCF-7 cells. To be noted: 100 μM. How it is done:
as §2

The structures appear in SMILES notation.

Consider `CNC(=O)[C@H]1O[C@@H](n2cnc3c(NCc4cccc(I)c4)ncnc32)[C@H](O)[C@@H]1O` [IB-MECA, N^6-(3-iodobenzyl)adenosine-5′-N-methyluronamide], for which, in the assay on T47D cells, the “Cell counts after treatment compared to day 0, in words” value is on record as “affected more severely”. Also, the CMV promoter activity entry with CMV promoter is listed as “did not show any decrease in activity”. In addition, the “Apoptosis, in words” value with Hs578T cells was “substantial apoptosis”. Moreover, in assay [1], the “Cyclin A and B1 levels” value is “downregulated”; the “Cyclin E levels” value was “elevated”; the “cdk inhibitor p27 level” value is “sharp increase”. In assay [2], the “ERα protein levels, in words” value was “Reduction of ERα protein levels”. The “pS2 mRNA level” value in the assay on pS2 mRNA was “reduced”. For the same compound, the “Estrogen receptor β message level” value in assay [3] is listed as “not significantly reduced”.
